Read-outs that look alike come from different tables or passages of the source.
Assays:
Format in all cases: in vivo
VMAT2 [1] = biological target: T1, VMAT2 (Homo sapiens, UniProt Q05940); assay: % VMAT2 blocking in caudate and putamen by PET scan 6-7 hours after oral dosing, Example 1B; conditions: for receptor occupancy at 7.5 mg: po, 7.5 mg oral, PET scan 6-7 hours after administration
T1 construct: from tissue
Source text: (§1) Complete blocking of VMAT2 is considered undesirable as this can lead to unwanted side effects, such as Parkinsonism. […] The levels of VMAT2 blocking can be determined by competitive binding studies using Positron Emission Tomography (PET). By co-administering a radioactive ligand with the compound of interest at various concentrations, the proportion of binding sites occupied can be determined (see for example, Matthews et al., "Positron emission tomography molecular imaging for drug development", Br. J. Clin. Pharmacol., 73:2, 175-186).
Volunteers 1 and 2 were the same as volunteers 1 and 2 in Example 1A described above. […] Blood sample were taken from all volunteers at 2, 4, 6 and 7 hours after drug administration. In addition, in all volunteers PET scans were initiated at 6 hours after drug administration and these were stopped at 7 hours after drug administration.

VMAT2 [2] = biological target: T1, VMAT2; assay: % VMAT2 blocking by PET scan after oral dosing of human volunteers, Example 1A
Source text: as §1
Blood samples were taken at 30, 60, 120 and 180 minutes after drug administration. At 60 minutes after drug administration, PET scans were initiated and these were stopped at 120 minutes after drug administration.
The experiment was carried out at dosages of 7.5 mg, 15 mg and 22.5 mg.

[3] = test system: non-amphetamine induced rats; assay: Open field locomotor activity test in rats without amphetamine induction (Example 2, Study 3); conditions: 2.5 mg/kg or 5 mg/kg
Experimental: All animal experiments were carried out according to the National Institute of Health (NIH) guidelines for the care and use of laboratory animals, and approved by the National Animal Experiment Board, Finland. Male CD (Charles River Laboratories, Germany) at weight range of 200-250 g (165-200 g upon arrival) were used for the experiments. Animals were housed at a standard temperature (22 ± 1°C) and in a light-controlled environment (lights on from 7 am to 8 pm) with ad libitum access to food and water.
Locomotor activity of the rats was tested in open field arena. The open field test was performed during the rat light cycle and under a normal lighting evenly distributed to the test chambers. The paths of the rats were recorded by activity monitor (Med. Associates Inc.).
Dosing the vehicle, vehicle-amphetamine, (+)-α-DHTBZ or risperidone was done prior to LMA test. The rats were placed in the centre of the arena, and the path was recorded for 60 minutes.
Animals were grouped as follows: • Group 1: 10 rats treated with Vehicle • Group 2: 10 rats treated with (+)-α-DHTBZ 2.5 mg/kg • Group 3: 10 rats treated with (+)-α-DHTBZ 5 mg/kg • Group 4: 10 rats treated with risperidone 1 mg/kg

T1 sequence (Q05940 whole entry): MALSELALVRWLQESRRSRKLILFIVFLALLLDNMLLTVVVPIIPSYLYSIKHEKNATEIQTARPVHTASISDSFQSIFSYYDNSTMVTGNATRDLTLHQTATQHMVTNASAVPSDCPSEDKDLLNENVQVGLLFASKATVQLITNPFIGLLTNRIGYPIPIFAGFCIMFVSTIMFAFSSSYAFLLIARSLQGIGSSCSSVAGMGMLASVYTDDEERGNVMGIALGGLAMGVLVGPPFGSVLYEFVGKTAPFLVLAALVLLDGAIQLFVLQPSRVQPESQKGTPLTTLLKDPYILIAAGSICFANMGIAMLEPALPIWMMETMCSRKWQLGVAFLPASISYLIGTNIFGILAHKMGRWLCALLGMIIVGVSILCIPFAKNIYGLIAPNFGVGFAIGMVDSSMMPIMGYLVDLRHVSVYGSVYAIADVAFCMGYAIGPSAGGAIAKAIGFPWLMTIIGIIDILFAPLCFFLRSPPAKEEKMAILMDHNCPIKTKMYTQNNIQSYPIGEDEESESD

## COc1cc2c(cc1OC)[C@H]1C[C@@H](O)[C@H](CC(C)C)CN1CC2 [(+)-α-dihydrotetrabenazine, (R,R,R)-3-isobutyl-9,10-dimethyloxy-1,3,4,5,7,11b-hexahydro-2H-pyrido[2,1-a]isoquinolin-2-ol]
VMAT2 [1]; after 6 hours following administration of 7.5mg
  % VMAT2 blocking: greater than 30%
VMAT2 [1]; each subject, 7.5 mg
  difference between the %VMAT2 blocking levels in the caudate and putamen regions of the striatum: No significant difference
VMAT2 [1]; Example 1B subject 1 (112 kg), read-out: %VMAT2 Occupancy Caudate
  receptor occupancy at 7.5 mg: 38%
VMAT2 [1]; Example 1B subject 1 (112 kg), read-out: %VMAT2 Occupancy Putamen
  receptor occupancy at 7.5 mg: 39%
VMAT2 [1]; Example 1B subject 2 (76 kg), read-out: %VMAT2 Occupancy Caudate
  receptor occupancy at 7.5 mg: 65%
VMAT2 [1]; Example 1B subject 2 (76 kg), read-out: %VMAT2 Occupancy Putamen
  receptor occupancy at 7.5 mg: 63%
VMAT2 [1]; Example 1B subject 3 (76 kg), read-out: %VMAT2 Occupancy Caudate
  receptor occupancy at 7.5 mg: 41%
VMAT2 [1]; Example 1B subject 3 (76 kg), read-out: %VMAT2 Occupancy Putamen
  receptor occupancy at 7.5 mg: 42%
VMAT2 [1]; Example 1B subject 4 (95 kg), read-out: %VMAT2 Occupancy Caudate
  receptor occupancy at 7.5 mg: 34%
VMAT2 [1]; Example 1B subject 4 (95 kg), read-out: %VMAT2 Occupancy Putamen
  receptor occupancy at 7.5 mg: 32%
VMAT2 [1]; Example 1B subject 5 (99 kg), read-out: %VMAT2 Occupancy Caudate
  receptor occupancy at 7.5 mg: 36%
VMAT2 [1]; Example 1B subject 5 (99 kg), read-out: %VMAT2 Occupancy Putamen
  receptor occupancy at 7.5 mg: 36%
VMAT2 [1]; Example 1B subject 6 (107 kg), read-out: %VMAT2 Occupancy Caudate
  receptor occupancy at 7.5 mg: 44%
VMAT2 [1]; Example 1B subject 6 (107 kg), read-out: %VMAT2 Occupancy Putamen
  receptor occupancy at 7.5 mg: 49%
VMAT2 [1]; subject 1, 7.5 mg
  reduction of level of blocking after 6-7 hours compared to the %VMAT2 blocking after 1-2 hours following administration: 30%
VMAT2 [1]; subject 2, 7.5 mg
  reduction of level of blocking after 6-7 hours compared to the %VMAT2 blocking after 1-2 hours following administration: 11%
VMAT2 [2]; even in heavier individuals, doses as low as 7.5 mg
  % VMAT2 blocking: at least 50%
VMAT2 [2]; subject 1 (112 kg), 7.5 mg oral, PET scan 60-120 minutes after administration
  % VMAT2 blocking: 54%
VMAT2 [2]; subject 1 (112 kg), 15 mg oral, PET scan 60-120 minutes after administration
  % VMAT2 blocking: 73%
VMAT2 [2]; subject 1 (112 kg), 22.5 mg oral, PET scan 60-120 minutes after administration
  % VMAT2 blocking: 75%
VMAT2 [2]; subject 2 (76 kg), 7.5 mg oral, PET scan 60-120 minutes after administration
  % VMAT2 blocking: 73%
VMAT2 [2]; subject 2 (76 kg), 15 mg oral, PET scan 60-120 minutes after administration
  % VMAT2 blocking: 83%
VMAT2 [2]; subject 2 (76 kg), 22.5 mg oral, PET scan 60-120 minutes after administration
  % VMAT2 blocking: 82%
VMAT2 [2]; subject 3 (129 kg), 7.5 mg oral, PET scan 60-120 minutes after administration
  % VMAT2 blocking: 62%
VMAT2 [2]; subject 3 (129 kg), 15 mg oral, PET scan 60-120 minutes after administration
  % VMAT2 blocking: 69%
VMAT2 [2]; subject 3 (129 kg), 22.5 mg oral, PET scan 60-120 minutes after administration
  % VMAT2 blocking: 74%
VMAT2 [2]; subject 4 (59 kg), 7.5 mg oral, PET scan 60-120 minutes after administration
  % VMAT2 blocking: 84%
VMAT2 [2]; subject 4 (59 kg), 15 mg oral, PET scan 60-120 minutes after administration
  % VMAT2 blocking: 89%
VMAT2 [2]; subject 5 (91 kg), 7.5 mg oral, PET scan 60-120 minutes after administration
  % VMAT2 blocking: 73%
VMAT2 [2]; subject 5 (91 kg), 15 mg oral, PET scan 60-120 minutes after administration
  % VMAT2 blocking: 79%
VMAT2 [2]; subject 5 (91 kg), 22.5 mg oral, PET scan 60-120 minutes after administration
  % VMAT2 blocking: 82%
VMAT2 [2]; subject 6 (68 kg), 7.5 mg oral, PET scan 60-120 minutes after administration
  % VMAT2 blocking: 60%
VMAT2 [2]; subject 6 (68 kg), 15 mg oral, PET scan 60-120 minutes after administration
  % VMAT2 blocking: 76%
VMAT2 [2]; subject 6 (68 kg), 22.5 mg oral, PET scan 60-120 minutes after administration
  % VMAT2 blocking: 62%
[3]
  stereotypic behaviour versus rats treated with the vehicle: comparable
  total movement versus rats treated with the vehicle: comparable

From patent EP3860599B1, “(+)-ALPHA-DIHYDROTETRABENAZINE DOSAGE REGIMEN FOR TREATING MOVEMENT DISORDERS” (Adeptio Pharmaceuticals Limited, priority 2018, dated 2020)
